Patent US10800810B2, “Active peptide for inhibiting AMPA receptor and preparation method and use thereof” (CHINA NATIONAL RESEARCH INSTITUTE OF FOOD AND FERMENTATION …, priority 2015, dated 2020)

Legend:
[1] = background; cited from earlier work
[2] = system: pentylenetetrazole (PTZ) model; conditions: background; cited from earlier work
[3] = system: neurons of CA1 region of the hippocampus; assay: Whole-cell recording of EPSC and mEPSC in mouse hippocampal slices; type: cell-based; conditions: for amplitudes of mEPSCs: P<0.03
Description: Hippocampus is taken from a C57BL/6 mouse to do whole-cell recording. The mouse is deep narcotized with 20% urethane before being decollated, then its brain is rapidly removed and immersed in ice-cold ACSF, then the brain is trimmed, and fixed onto a vibration slicer (Leica VT1000A, Germany) to be cut into coronal slices of 350 microns. The slices are incubated with ACSF for at least 1 hour at room temperature before recording.
(§1) The slices of the hippocampus are transferred to an underwater recording room (Warner instrument). In the recording room, the slices are continuously perfused with ACSF at a speed of 3 ml/min, and whole-cell records of neurons of CA1 region of the hippocampus are performed by those experimenters who are not distinguished between a control group and a treated group. The neurons are identified through morphological recognition using an infrared ray differential interference phase-contrast microscope (BX51W, Olympus, Japan). A borosilicate microtube of 1.5 mm (external diameter)×0.86 mm (internal diameter) is drawn via a flame Brown electrode drawing instrument (P-97, Sutter instrument) using a 4 stage drawing scheme, to form a recording electrode with a resistance between 6-9 megohms. The recording electrode for recording is filled with above-mentioned internal liquid, and a whole-cell recording is proceeded by using above-mentioned external liquid.
(§2) Bipolar polytetrafluoroethylene insulated iridium is used to perform a voltage-clamp recording of excitatory postsynaptic currents (EPSCs), and platinum microelectrode (AM system) is induced at a frequency of 0.0167 Hz. Records are taken by a Multiclamp 700B amplifier, filtered at 10 kHz, sampled at 200 microseconds, and recorded to a personal computer by using pClamp10.2 software, and then analyzed by using Axon Digidata 1440A and pClamp10.2 (Molecular Devices).
Experiments mentioned below are carried out respectively, and the results are represented by an average value±S.E.M. In addition to data analysis of cumulative probability by the means of K-S test, statistical analyses of biological data are all performed by using T-test. All the statistical analyses are done by using SPSS 13.0 software.
(1) EPSCs of slices treated by EGAR are recorded, while EPSCs of slices without EGAR treatment is as contrast, and 10 μM of PTX is added into the external liquid to separate mEPSCs out.

AMPA receptor [4] = assay: AMPAR-mediated EPSC and mEPSC in mouse hippocampal slices; type: cell-based
Description: as §1, §2
(§3) (2) after blocking components of NMDA receptor-mediated EPSCs by adding 50 μM of D-APV to ACSF and blocking AMPAR-mediated EPSCs by adding 10 μM of CNQX to ACSF, remaining EPSCs of both them are also recorded. 10 μM of PTX is added in external liquid to isolate mEPSCs. After 10 μM of CNQX and 20 μM of EGAR and also 50 μM of D-APV (an antagonist of NMDA receptor) and 20 μM of EGAR are added to ACSF, mEPSCs are also recorded. By adding 10 μM of CNQX or 50 μM of D-APV to ACSF, NMDAR-mediated or AMPAR-mediated mEPSCs are isolated.
(3) With regard to a NMDAR-mediated current record, 100 μM of NMDA is added into the above-mentioned external liquid; and with regard to an AMPAR-mediated current record, 20 μM of AMPA is added into above-mentioned external liquid.

NMDA receptor [5] = assay: NMDAR-mediated EPSC and mEPSC in mouse hippocampal slices; type: cell-based
Description: as §1, §2
as §3, with “isolated. […]” for “isolated.”

AMPA receptor [6] = assay: Current induced by AMPA, patch clamp; type: cell-based, mouse
Description: as §1
(§4) (4) With regard to records of currents induced by NMDA, 100 μM of NMDA is added into above-mentioned external liquid; with regard to records of currents induced by AMPA, 20 μM of AMPA is added into above-mentioned external liquid.

NMDA receptor [7] = assay: Current induced by NMDA, patch clamp; type: cell-based, mouse; conditions: 100 μM NMDA plus 20 μM EGAR, P>0.05, n=6
Description: as §1, §4

hippocampal neuron = assay: Epilepsy-like discharge of a hippocampal neuron induced by low magnesium external liquid; type: cell-based, mouse
Description: as §1
(5) In an experiment of nominal zero magnesium, magnesium ions are replaced by sodium ions with the same osmotic concentration.

CA1 neuron = assay: Effect on electrophysiological properties of a neuron; type: cell-based, mouse
Description: as §1

[8] = system: PTZ-induced mouse epilepsy; assay: Model of PTZ-induced epilepsy seizure; type: in vivo; conditions: for preclinical period of epilepsy seizure vs PBS treated group: 30 minutes before PTZ 55 mg/kg i.p.
Description: In order to determine anticonvulsive effect of EGAR, the degree of epilepsy after EGAR treatment is evaluated for the model of PTZ-induced epilepsy seizure. EGAR is injected into animals earlier 30 minutes than PTZ. The animals are randomly divided into 4 groups, and each group has 10 animals. 4 groups are given EGAR at 0, 1, 10 and 100 mg/kg respectively. All animals are intraperitoneally injected with PTZ at a dose of 55 mg/kg, and this dose can produce clonic seizures in all control animals.
Behaviors of mice are observed for 30 minutes immediately after PTZ injection. […] Mice are placed in a transparent plastic cage, and are observed for 30 minutes. The cage is thoroughly cleaned by using wet/dry cloth and any olfactory clue is removed with 70% ethanol. Animals that show rampage and forelimb clonus or more serious behavior (rampage, clonus and fall down) are considered to be epilepsy in mouse brain edge. Epilepsy seizure is scored according to the following criteria: 0, no response; 1, immobile; 2, taste movement and grasping; 3, tremor; 4, head shaking; 5, rampage and forelimb clonus; 6, rampage, clonus and fall down; 7, death.

[9] = behavioral experiment, overall conclusion

## NS(=O)(=O)c1cccc2c1c([N+](=O)[O-])cc1nc(O)c(O)nc12 [NBQX, 2,3-dihydroxy-6-nitro-7-sulfamoyl benzo [f] quinoxaline]
[1]
  solubility: low solubility
[2]
  effect in pentylenetetrazole (PTZ) model: can play a role

## EGAR: tetrapeptide with an amino-acid sequence of SEQ ID No.17, contained in the salmon skin active peptide; synthetic EGAR used in tests (Salmo salar)
[3]; 20 μM EGAR
  amplitudes of mEPSCs: reduce
[3]; 50 μM EGAR
  amplitudes of mEPSCs: reduce
[3]; 100 μM EGAR
  amplitudes of mEPSCs: reduce
[3]; EGAR treated groups at concentrations
  cumulative probabilities of mEPSC event intervals vs control group: no difference
[3]; EGAR treated groups at concentrations, K-S test p<0.05
  cumulative probabilities of mEPSC amplitudes vs control group: reduced
[3]; slices treated with EGAR, 10 μM PTX
  mEPSC frequencies vs control group: no change
AMPA receptor [4]; 50 μM D-APV and 20 μM EGAR, P<0.01, n=6
  amplitude of AMPAR-mediated EPSC vs control group: significantly lower
AMPA receptor [4]; K-S test, p<0.05, n=6
  cumulative probabilities of AMPAR-mediated mEPSCs amplitudes vs control group: reduces
AMPA receptor [4]; K-S test, p>0.05, n=6
  cumulative probabilities of AMPAR-mediated mEPSC event intervals vs control group: no difference in frequency
AMPA receptor [4]; neurons treated by EGAR, P<0.05, t test, n=6
  amplitude of AMPAR-mediated mEPSCs vs control group: decline
AMPA receptor [4]; neurons treated with EGAR, P>0.05, t test
  frequencies of AMPAR-mediated mEPSCs vs control group: do not change
NMDA receptor [5]; 10 μM CNQX then 20 μM EGAR, P>0.05, n=6
  amplitude of NMDAR-mediated EPSC vs control group: not changed
NMDA receptor [5]; 100 μM NMDA plus 20 μM EGAR, P>0.05
  frequencies of NMDAR-mediated mEPSCs: no significant difference
NMDA receptor [5]; 100 μM NMDA plus 20 μM EGAR, P>0.05, n=6
  amplitudes of NMDAR-mediated mEPSCs: no significant difference
AMPA receptor [6]; 20 μM AMPA plus 20 μM EGAR, P<0.01, n=6
  peak current of AMPA, difference between groups: significant difference
AMPA receptor [6]; 20 μM AMPA, 20 μM EGAR, voltage-clamped at -70 mV
  inward current induced by AMPA: reduced
NMDA receptor [7]
  peak current of NMDA, difference between groups: no significant difference
Hippocampal neuron; 20 μM EGAR, P<0.05, n=6
  frequency of a peak current caused by low magnesium, difference between groups: significant difference
Hippocampal neuron; overall conclusion
  epilepsy-like discharge of a hippocampal neuron induced by low magnesium external liquid: can inhibit
CA1 neuron; 20 uM of EGAR treated group
  Action potential half width: 0.99 ± 0.01 ms
  Amplitude: 87.61 ± 1.18 mV
  Frequency: 13.53 ± 2.42 Hz
  Input resistance: 164.57 ± 9.96 MΩ
  Membrane capacitance: 19.07 ± 0.67 pF
  Resting potential: −65.57 ± 1.23 mV
  Threshold potential: −45.61 ± 0.2 mV
CA1 neuron; overall conclusion of Table 2
  effect on electrophysiological parameters of a CA1 neuron: no significant effect
[8]; 1 mg/kg EGAR
  preclinical period of epilepsy seizure vs PBS treated group: significant difference
[8]; 10 mg/kg EGAR
  preclinical period of epilepsy seizure vs PBS treated group: significant difference
[8]; 100 mg/kg EGAR
  preclinical period of epilepsy seizure vs PBS treated group: significant difference
[8]; [9]
  preclinical period of epilepsy seizure: extend the preclinical period
  tic symptom of PTZ-induced mouse epilepsy: mitigate tic symptom
